The text below walks through data of PubChem BioAssay (NCI).

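Method: 48-hour compound exposure of cells in 96-well plates, five concentrations, linear interpolation of endpoints. At the GI50, growth is halved. The concentration for full growth arrest is given as TGI.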 Some results are limits rather than exact numbers.

Assay in all cases: DTP human tumour cell line panel, 48 h
Test [1] concerns LOX IMVI melanoma.
Test [2] deals with MCF7 breast.
Test [3] relates to OVCAR-4 ovarian.
For test [4], the system named is OVCAR-8 ovarian.
In test [5] the test system is RPMI-8226 leukemia.
Test [6] deals with SF-268 CNS.
Test [7] has as its system SK-MEL-28 melanoma.
Test [8] relates to SW-620 colon.
Test [9] relates to UACC-62 melanoma.
The test system of test [10] is CCRF-CEM leukemia.

As usually defined, the GI50 is the concentration giving 50% growth inhibition. As usually defined, the TGI is the concentration at which net growth stops. For the molecule `CCOC(=O)Oc1c(OC)cc(C(=O)O[C@@H]2C[C@@H]3CN4CCc5c([nH]c6cc(OC)ccc56)[C@H]4C[C@@H]3[C@H](C(=O)OC)[C@H]2OC)cc1OC`, the GI50 was 2.91 µM in test [1]; 4.13 µM in test [2]; 4.72 µM in [3]; 4.94 µM in test [4]; 2.23 µM in [5]; 8.07 µM in [6]. Besides, the GI50 is 6.32 µM in [7], 3.67 µM in [8] and 6.89 µM in test [9]. Moreover, the total growth inhibition concentration (TGI) in [1] worked out at 14.7 µM; in test [2] it was 17.3 µM; in test [3], 19.8 µM; in test [4] it was 21.1 µM; in test [5] it was 10.8 µM; in [6] it was 27.5 µM. Further, the values for the TGI in test [7], in test [8] and in test [9] were 18.8 µM, 19.4 µM and 20.3 µM, respectively.

Turning to `O=C(CCCn1ccnc1[N+](=O)[O-])NCCn1ccnc1`, the total growth inhibition concentration (TGI) in test [10], in test [2], in test [4], in [6], in test [7] and in test [8] was above 100 µM each time. This molecule also registered a TGI in test [9] above 100 µM.

As for `COc1ccc(-c2nc(-c3ccccc3)c(-c3ccccc3)n2C2CC2)cc1OC1CCCC1`, the GI50 in test [10] is 33.3 µM; in test [1], 15.1 µM; in test [2] it was 67.6 µM; in test [3] it was 97.4 µM; in test [4], 66.6 µM; in [5] it was 48.8 µM. Further, the results for the GI50 in test [6], in [7] and in test [8] were 44.9 µM, above 165 µM and 53.7 µM, respectively. The TGI in [10], in test [1], in [2], in test [3], in test [4] and in test [5] was above 165 µM throughout. Also, the TGI in test [6], in test [7] and in test [8] was above 165 µM in each case.

With `C/C=C(\C)C(=O)O[C@H]1C=CC(=O)O[C@H]1CNC(=O)[C@H](C)O`, the GI50 in test [1] is 15.9 µM; in [2], 19.7 µM; in test [3], 17.3 µM; in [4] it was 24.3 µM; in test [5] it was 21.3 µM; in test [6], 16.7 µM. The GI50 was 17.4 µM in test [7], 14.6 µM in test [8] and 16.1 µM in test [9]. Besides, the total growth inhibition concentration (TGI) in [1] amounted to 30.4 µM; in test [2], 42.3 µM; in [3] it was 36.1 µM; in test [4], 65.9 µM; in [5], 45.7 µM; in test [6], 35.7 µM. In addition, the TGI in [7] came to 32.4 µM; in [8], 28.6 µM; in test [9], 30.5 µM.

For the molecule `COc1nc(C)cc2c(=O)n(-c3ccccc3)n(CCCN3CCN(c4ccc(Cl)cc4)CC3)c(=O)c12`, the GI50 in test [1] was above 50 µM; in test [2] it was 37.7 µM; in [3] it was 17.6 µM; in [5], above 50 µM; in [6], 37.7 µM; in test [7] it was above 50 µM. Moreover, the GI50 is 43.8 µM in test [8] and 39.9 µM in test [9]. In addition, the TGI in test [1], in test [2], in [3], in [5], in test [6] and in [7] was above 50 µM each time. The TGI in [8] and in [9] was above 50 µM in each case.

In the case of `COC(=O)C(Nc1ccc(OC)cc1)c1ccccc1` (stereo unspecified), the total growth inhibition concentration (TGI) in test [10], in [1], in test [2], in test [4], in test [5] and in [6] was above 100 µM each time. Besides, the concentration for total growth inhibition (TGI) in test [7], in [8] and in test [9] was above 100 µM throughout.

Turning to `CC(=O)N1c2ccccc2Sc2cc(C(O)(C(F)(F)F)C(F)(F)F)ccc21`, the TGI in test [10], in test [1], in test [2], in [3], in test [4] and in test [6] was above 10 µM throughout. Further, the TGI in test [7], in [8] and in [9] was above 10 µM each time.

For `O=C(C(Br)Br)C(Br)C(Br)c1ccccc1` (stereo unspecified), the GI50 in [10] is 0.536 µM; in test [1], 1.49 µM; in [2] it was 3.58 µM; in test [4], 3.16 µM; in test [5] it was 1.54 µM; in test [6], 4.04 µM. Also, the GI50 in test [7] was 6.7 µM; in [8], 2.03 µM; in test [9] it was 3.25 µM. Besides, the total growth inhibition concentration (TGI) was 2.66 µM in [10]; 3.61 µM in [1]; 13.4 µM in test [2]; above 100 µM in [4]; 4.36 µM in [5]; 16.9 µM in test [6]. Further, the concentration for total growth inhibition (TGI) worked out at 22.1 µM in test [7], 4.19 µM in test [8] and 11.5 µM in [9].

As to `O=C1c2ccccc2-c2c1c1ccccc1c(=O)n2CCNCCNCCn1c2c(c3ccccc3c1=O)C(=O)c1ccccc1-2`, the concentration for 50% growth inhibition (GI50) was 0.0437 µM in test [1]; 0.109 µM in [2]; 1.43 µM in test [3]; 0.226 µM in test [4]; 0.011 µM in test [5]; 0.241 µM in test [6]. Further, the GI50 in test [7] was 2.9 µM; in [8], 0.0296 µM; in test [9], 0.338 µM. The TGI in [1] was 1.76 µM; in test [2], 1.06 µM; in [3], 14.9 µM; in [4], 2.29 µM; in test [5] it was 1.24 µM; in test [6] it was 10 µM. Besides, the concentration for total growth inhibition (TGI) in test [7] was 24.5 µM; in test [8], 1.93 µM; in [9], 8.79 µM.

Take `COC(=O)/C(=C\c1c(C)[nH]c2ccccc12)S(=O)(=O)c1ccccc1`: the GI50 in test [1] is 1.99 µM; in test [2] it was 2.81 µM; in [3], 5.71 µM; in [4], 3.94 µM; in test [5], 3.15 µM; in [6], 3.33 µM. For the same molecule, the GI50 in test [7] is 5.78 µM; in test [8], 5.15 µM; in test [9] it was 2.77 µM. For the same molecule, the TGI was 5.18 µM in [1]; 12.5 µM in test [2]; above 100 µM in test [3]; above 100 µM in test [4]; above 100 µM in test [5]; 11.1 µM in test [6]. Also, the total growth inhibition concentration (TGI) is 18.7 µM in test [7], 21.9 µM in [8] and 13.3 µM in test [9].

In the case of `O=C(Nc1ccc(Cl)cc1)c1cc2ccccc2cc1O`, the GI50 in test [10] is 4.65 µM; in test [1], 2.36 µM; in [2], 1.9 µM; in test [3] it was 4.41 µM; in [4] it was 3.67 µM; in [6] it was 3.68 µM. Further, the values for the GI50 in test [7], in test [8] and in [9] were 7.62 µM, 3.62 µM and 0.899 µM, respectively. Moreover, the TGI in test [10] was above 100 µM; in test [1], 18.2 µM; in test [2] it was above 100 µM; in test [3], above 100 µM; in test [4], above 100 µM; in test [6], above 100 µM. Moreover, the TGI in test [7], in test [8] and in [9] was above 100 µM throughout.

In the case of `Cc1nc2cccc(NCc3ccc(C(=O)NO)cc3)c2c(=O)n1-c1ccccc1`, the GI50 is 2.09 µM in test [10]; 1.82 µM in test [1]; 2.89 µM in [2]; 2.67 µM in test [3]; 1.52 µM in [4]; 2.39 µM in [5]. Also, the GI50 in test [7] is 1.97 µM; in test [8] it was 1.55 µM. For the same molecule, the TGI in [10] was above 100 µM; in test [1] it was 3.35 µM; in [2], 38.9 µM; in [3], 9.64 µM; in test [4], 3.75 µM; in test [5], above 100 µM. Also, the concentration for total growth inhibition (TGI) was 3.92 µM in test [7] and 5.99 µM in test [8].

Consider `C[C@]12CC[C@@H]3c4ccc(O)cc4CC[C@H]3[C@@H]1CC[C@@H]2NS(=O)(=O)Cc1ccc(Cl)cc1`, for which the GI50 in test [10] was 2.63 µM; in test [2] it was 2.92 µM; in test [3], 2.69 µM; in [4], 2.52 µM; in [5] it was 3.14 µM; in [6], 3.16 µM. Besides, the values for the GI50 in test [7], in test [8] and in test [9] were 2.01 µM, 3.5 µM and 1.92 µM, respectively. Besides, the TGI in test [10] is above 100 µM; in [2], 9.62 µM; in test [3], 13.6 µM; in test [4], 7.58 µM; in test [5], 15.5 µM; in test [6], 12.5 µM. Also, the total growth inhibition concentration (TGI) in [7] amounted to 4.22 µM; in test [8] it was 17.3 µM; in test [9], 4.56 µM.
